Measurements: patent US5968910A, “Compositions containing two or three inhibitors of different HIV reverse transcriptases” (priority 1994, dated 1999)
Where two headings read alike, the source gives them in different places.

System: HIV-1
Test: Breakthrough of mutant HIV-1 strains in CEM cell cultures, single drugs and double/triple combinations
Format: cell-based
Settings: for activity at 0.04 µg/mL / activity at 0.1 µg/mL / activity at 0.25 µg/mL: Human immunodeficiency virus 1, CCRF-CEM, read-out: HIV-1-induced syncytium formation in CEM cells; for activity at 0.04 µg/mL: single drug 0.04 μg/ml; for activity at 0.1 µg/mL: single drug 0.10 μg/ml; for activity at 0.25 µg/mL: single drug 0.25 μg/ml
Protocol: The culture medium consisted of RPMI 1640 containing 10% fetal bovine serum, 2 mM L-glutamine, and 0.075% NaHCO3. The multiplicity of the initial infection was ~1000 times the CCID50 (50% cell culture infective dose). Passages were performed every 3 to 4 days by adding 0.5 to 1.0 ml of the infected culture supernatant to 5 ml of a suspension containing 4×10^5 uninfected CEM cells per ml. Syncytium formation was used as a parameter of virus breakthrough in the cell cultures. In the drug combination experiments, the compounds were combined at the same initial concentrations as used for the two lowest concentrations in the single-drug experiments.
Compound IV, BHAP and TSAO-m^3 T were added to HIV-1-infected CEM cell cultures at 0.04, 0.10 and 0.25 ug/ml (Compound IV and BHAP) or 1.0, 2.5 and 5.0 μg/ml (TSAO-m^3 T). In addition, various double- and triple-drug combinations of Compound IV, BHAP and TSAO-m^3 T were performed, combining these inhibitors at their lowest (0.04 μg/ml) or intermediary (0.1 μg/ml) concentration as used in the single-drug experiments.

Cc1occc1C(=S)Nc1ccc(Cl)c(C(=O)OC2CCCC2)c1 [Compound IV]
activity at 0.04 µg/mL (96 h, day 4 post infection): 0%
activity at 0.1 µg/mL (96 h, day 4 post infection): 0%
activity at 0.25 µg/mL (96 h, day 4 post infection): 0%
activity at 0.04 µg/mL (168 h, day 7 post infection): 0%
activity at 0.1 µg/mL (168 h, day 7 post infection): 0%
activity at 0.25 µg/mL (168 h, day 7 post infection): 0%
activity at 0.04 µg/mL (264 h, day 11 post infection): 6.25%
activity at 0.1 µg/mL (264 h, day 11 post infection): 0%
activity at 0.25 µg/mL (264 h, day 11 post infection): 0%
activity at 0.04 µg/mL (336 h, day 14 post infection): 12.5%
activity at 0.1 µg/mL (336 h, day 14 post infection): 6.25%
activity at 0.25 µg/mL (336 h, day 14 post infection): 0%
activity at 0.04 µg/mL (432 h, day 18 post infection): 100%
activity at 0.1 µg/mL (432 h, day 18 post infection): 6.25%
activity at 0.25 µg/mL (432 h, day 18 post infection): 0%
activity at 0.04 µg/mL (504 h, day 21 post infection): 100%
activity at 0.1 µg/mL (504 h, day 21 post infection): 87.5%
activity at 0.25 µg/mL (504 h, day 21 post infection): 3.12%
activity at 0.04 µg/mL (600 h, day 25 post infection): 100%
activity at 0.1 µg/mL (600 h, day 25 post infection): 87.5%
activity at 0.25 µg/mL (600 h, day 25 post infection): 19%
activity at 0.04 µg/mL (672 h, day 28 post infection): 100%
activity at 0.1 µg/mL (672 h, day 28 post infection): 100%
activity at 0.25 µg/mL (672 h, day 28 post infection): 75%
activity at 0.04 µg/mL (768 h, day 32 post infection): 100%
activity at 0.1 µg/mL (768 h, day 32 post infection): 100%
activity at 0.25 µg/mL (768 h, day 32 post infection): 100%
activity at 0.04 µg/mL (840 h, day 35 post infection): 100%
activity at 0.1 µg/mL (840 h, day 35 post infection): 100%
activity at 0.25 µg/mL (840 h, day 35 post infection): 100%
activity at 0.04 µg/mL (936 h, day 39 post infection): 100%
activity at 0.1 µg/mL (936 h, day 39 post infection): 100%
activity at 0.25 µg/mL (936 h, day 39 post infection): 100%
activity at 0.04 µg/mL (1008 h, day 42 post infection): 100%
activity at 0.1 µg/mL (1008 h, day 42 post infection): 100%
activity at 0.25 µg/mL (1008 h, day 42 post infection): 100%
activity at 0.04 µg/mL (1104 h, day 46 post infection): 100%
activity at 0.1 µg/mL (1104 h, day 46 post infection): 100%
activity at 0.25 µg/mL (1104 h, day 46 post infection): 100%
activity at 0.04 µg/mL (1176 h, day 49 post infection): 100%
activity at 0.1 µg/mL (1176 h, day 49 post infection): 100%
activity at 0.25 µg/mL (1176 h, day 49 post infection): 100%
activity at 0.04 µg/mL (1272 h, day 53 post infection): 100%
activity at 0.1 µg/mL (1272 h, day 53 post infection): 100%
activity at 0.25 µg/mL (1272 h, day 53 post infection): 100%
activity at 0.04 µg/mL (1344 h, day 56 post infection): 100%
activity at 0.1 µg/mL (1344 h, day 56 post infection): 100%
activity at 0.25 µg/mL (1344 h, day 56 post infection): 100%
activity at 0.04 µg/mL (1440 h, day 60 post infection): 100%
activity at 0.1 µg/mL (1440 h, day 60 post infection): 100%
activity at 0.25 µg/mL (1440 h, day 60 post infection): 100%
activity at 0.04 µg/mL (1536 h, day 64 post infection): 100%
activity at 0.1 µg/mL (1536 h, day 64 post infection): 100%
activity at 0.25 µg/mL (1536 h, day 64 post infection): 100%
activity at 0.04 µg/mL (1608 h, day 67 post infection): 100%
activity at 0.1 µg/mL (1608 h, day 67 post infection): 100%
activity at 0.25 µg/mL (1608 h, day 67 post infection): 100%
activity at 0.04 µg/mL (1704 h, day 71 post infection): 100%
activity at 0.1 µg/mL (1704 h, day 71 post infection): 100%
activity at 0.25 µg/mL (1704 h, day 71 post infection): 100%
activity at 0.04 µg/mL (1776 h, day 74 post infection): 100%
activity at 0.1 µg/mL (1776 h, day 74 post infection): 100%
activity at 0.25 µg/mL (1776 h, day 74 post infection): 100%
activity at 0.04 µg/mL (1848 h, day 77 post infection): 100%
activity at 0.1 µg/mL (1848 h, day 77 post infection): 100%
activity at 0.25 µg/mL (1848 h, day 77 post infection): 100%
virus breakthrough delayed till day (single drug, highest concentration): 21 days
